According to US11884676B2, “Substituted pyrimido[1,2-b]pyridazines as positive allosteric modulators of the muscarinic acetylcholine receptor M4” (Vanderbilt University, priority 2020, dated 2024):

Molecular target: T1, Human M4 (Homo sapiens, UniProt P08173)
T1 construct: expressed in transfected cells
T1 sequence (P08173 1-479): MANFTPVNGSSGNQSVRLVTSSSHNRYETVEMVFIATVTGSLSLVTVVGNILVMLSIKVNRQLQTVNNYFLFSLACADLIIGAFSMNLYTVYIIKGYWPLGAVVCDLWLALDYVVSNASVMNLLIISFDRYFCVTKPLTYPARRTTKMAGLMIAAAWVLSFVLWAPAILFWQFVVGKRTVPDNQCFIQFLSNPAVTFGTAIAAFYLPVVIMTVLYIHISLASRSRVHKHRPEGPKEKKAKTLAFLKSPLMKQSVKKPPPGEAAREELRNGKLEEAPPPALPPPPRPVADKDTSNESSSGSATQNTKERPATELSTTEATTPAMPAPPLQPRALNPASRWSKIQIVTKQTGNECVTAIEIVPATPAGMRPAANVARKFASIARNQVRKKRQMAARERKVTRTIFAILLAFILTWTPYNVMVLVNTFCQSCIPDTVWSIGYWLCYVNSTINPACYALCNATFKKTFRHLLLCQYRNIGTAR
Experiment: mAChR M4 cell-based functional assay (calcium flux, PAM mode)
Conditions: hM4-Gqi5 CHO-K1 cells; for Emax at 30 µM: CHO-K1, % ACh maximum at 30 μM; for EC50: concentration-dependent increase in the EC20 acetylcholine response
Summary of the method: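 CHO-K1 cells stably co-expressing human M4 and chimeric Gqi5, Fluo-4 loaded; compound added first (11-point, 1:3 CRC), then EC20 acetylcholine at 144 s and EC80 at 230 s. PAM activity read on FDSS as concentration-dependent increase of EC20 ACh calcium response; EC50 and Emax from four-parameter logistic fit.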

## Cc1cc2nccc(=O)n2nc1N1CC[C@H](Oc2ccc3c(c2)OCCO3)C[C@H]1C (stereo in doubt) [Compound 107, 7-((2R,4S)-4-((2,3-dihydrobenzo[b][1,4]dioxin-6-yl)oxy)-2-methylpiperidin-1-yl)-8-methyl-4H-pyrimido[1,2-b]pyridazin-4-one]
  Emax at 30 µM: 55%

## [2H]C1([2H])Oc2ccc(OC3CCN(c4nn5c(=O)ccnc5c(COC)c4C)CC3)cc2OC1([2H])[2H] [Compound 19, 7-(4-((2,3-Dihydrobenzo[b][1,4]dioxin-6-yl-2,2,3,3-d4)oxy)piperidin-1-yl)-9-(methoxymethyl)-8-methyl-4H-pyrimido[1,2-b]pyridazin-4-one]
  Emax at 30 µM: 75%
  EC50: 460 nM

## [2H]C1([2H])Oc2ccc(O[C@H]3CCN(c4nn5c(=O)ccnc5cc4C)C[C@H]3F)cc2OC1([2H])[2H] [Compound 112, 7-((3R,4S)-4-((2,3-dihydrobenzo[b][1,4]dioxin-6-yl-2,2,3,3-d4)oxy)-3-fluoropiperidin-1-yl)-8-methyl-4H-pyrimido[1,2-b]pyridazin-4-one]
  Emax at 30 µM: 108%
  EC50: 75 nM

## [2H]C1([2H])Oc2ccc(O[C@H]3CCN(c4nn5c(=O)ccnc5c(C)c4C)[C@H](C)C3)cc2OC1([2H])[2H] [Compound 132, 7-((2R,4S)-4-((2,3-dihydrobenzo[b][1,4]dioxin-6-yl-2,2,3,3-d4)oxy)-2-methylpiperidin-1-yl)-8,9-dimethyl-4H-pyrimido[1,2-b]pyridazin-4-one]
  Emax at 30 µM: 107%
  EC50: 34 nM

## Cc1cc(=O)n2nc(N3CCC(Oc4ccc5c(c4)C(=O)NCC5)CC3)c(C)cc2n1 [Compound 72, 2,8-dimethyl-7-(4-((1-oxo-1,2,3,4-tetrahydroisoquinolin-7-yl)oxy)piperidin-1-yl)-4H-pyrimido[1,2-b]pyridazin-4-one]
  Emax at 30 µM: 74%
  EC50: 1540 nM

## Cc1cc2nccc(=O)n2nc1N1CC[C@@H](Oc2ccc3c(c2)CCO3)[C@H](F)C1 [Compound 56, 7-((3R,4R)-4-((2,3-dihydrobenzofuran-5-yl)oxy)-3-fluoropiperidin-1-yl)-8-methyl-4H-pyrimido[1,2-b]pyridazin-4-one]
  Emax at 30 µM: 80%
  EC50: 206 nM

## Cc1ccc(OC2CCN(c3nn4c(=O)ccnc4cc3C)CC2)cc1F [Compound 88, 7-(4-(3-fluoro-4-methylphenoxy)piperidin-1-yl)-8-methyl-4H-pyrimido[1,2-b]pyridazin-4-one]
  Emax at 30 µM: 77%
  EC50: 383 nM

## [2H]C1([2H])Oc2ccc(O[C@H]3CCN(c4nn5c(=O)c(F)c(C)nc5cc4C)C[C@@H]3F)cc2OC1([2H])[2H] [Compound 38, 7-((3S,4S)-4-((2,3-dihydrobenzo[b][1,4]dioxin-6-yl-2,2,3,3-d4)oxy)-3-fluoropiperidin-1-yl)-3-fluoro-2,8-dimethyl-4H-pyrimido[1,2-b]pyridazin-4-one]
  Emax at 30 µM: 107%
  EC50: 211 nM

## Cc1cc2nccc(=O)n2nc1N1CC[C@H](Oc2ccc3c(c2)OCCO3)[C@H](F)C1 [Compound 43, 7-((3R,4S)-4-((2,3-dihydrobenzo[b][1,4]dioxin-6-yl)oxy)-3-fluoropiperidin-1-yl)-8-methyl-4H-pyrimido[1,2-b]pyridazin-4-one]
  Emax at 30 µM: 69%
  EC50: 171 nM

## Cc1cc2nc(C)c(F)c(=O)n2nc1N1CC[C@H](Oc2ccc3c(c2)OCCO3)[C@@H](F)C1 [Compound 37, 7-((3S,4S)-4-((2,3-dihydrobenzo[b][1,4]dioxin-6-yl)oxy)-3-fluoropiperidin-1-yl)-3-fluoro-2,8-dimethyl-4H-pyrimido[1,2-b]pyridazin-4-one]
  Emax at 30 µM: 105%
  EC50: 134 nM

## [2H]C1(Oc2ccc3c(c2)OC([2H])([2H])C([2H])([2H])O3)CCN(c2nn3c(=O)cc(C(F)(F)F)nc3c(C)c2C)CC1 [Compound 95, 7-(4-((2,3-dihydrobenzo[b][1,4]dioxin-6-yl-2,2,3,3-d4)oxy)piperidin-1-yl-4-d)-8,9-dimethyl-2-(trifluoromethyl)-4H-pyrimido[1,2-b]pyridazin-4-one]
  Emax at 30 µM: 87%
  EC50: 73 nM

## COc1ncc(OC2CCN(c3nn4c(=O)ccnc4cc3C)CC2)cc1C [Compound 75, 7-(4-((6-methoxy-5-methylpyridin-3-yl)oxy)piperidin-1-yl)-8-methyl-4H-pyrimido[1,2-b]pyridazin-4-one]
  Emax at 30 µM: 84%
  EC50: 1510 nM

## [2H]C1(Oc2ccc3c(c2)OC([2H])([2H])C([2H])([2H])O3)CCN(c2nn3c(=O)cc(COC)nc3cc2C)CC1 [Compound 109, 7-(4-((2,3-dihydrobenzo[b][1,4]dioxin-6-yl-2,2,3,3-d4)oxy)piperidin-1-yl-4-d)-2-(methoxymethyl)-8-methyl-4H-pyrimido[1,2-b]pyridazin-4-one]
  Emax at 30 µM: 97%
  EC50: 19 nM

## Cc1c(N2CCC(Oc3ccc(C(F)(F)F)cc3)CC2)nn2c(=O)ccnc2c1C [Compound 80, 8,9-dimethyl-7-(4-(4-(trifluoromethyl)phenoxy)piperidin-1-yl)-4H-pyrimido[1,2-b]pyridazin-4-one]
  Emax at 30 µM: 76%
  EC50: 2180 nM

## [2H]C1([2H])Oc2ccc(OC3CCN(c4nn5c(=O)c(F)c(C)nc5cc4C)CC3)cc2OC1([2H])[2H] [Compound 15, 7-(4-((2,3-Dihydrobenzo[b][1,4]dioxin-6-yl-2,2,3,3-d4)oxy)piperidin-1-yl)-3-fluoro-2,8-dimethyl-4H-pyrimido[1,2-b]pyridazin-4-one]
  Emax at 30 µM: 80%
  EC50: 20 nM

## [2H]C1([2H])Oc2cc(O[C@H]3CCN(c4nn5c(=O)ccnc5cc4C)[C@H](C)C3)cc(F)c2OC1([2H])[2H] [Compound 130, 7-((2R,4S)-4-((8-fluoro-2,3-dihydrobenzo[b][1,4]dioxin-6-yl-2,2,3,3-d4)oxy)-2-methylpiperidin-1-yl)-8-methyl-4H-pyrimido[1,2-b]pyridazin-4-one]
  Emax at 30 µM: 116%
  EC50: 160 nM

## [2H]C1([2H])Oc2ccc(O[C@@H]3CCN(c4nn5c(=O)ccnc5cc4C)C[C@H]3F)cc2OC1([2H])[2H] [Compound 41, 7-((3R,4R)-4-((2,3-dihydrobenzo[b][1,4]dioxin-6-yl-2,2,3,3-d4)oxy)-3-fluoropiperidin-1-yl)-8-methyl-4H-pyrimido[1,2-b]pyridazin-4-one]
  Emax at 30 µM: 114%
  EC50: 159 nM

## [2H]C1([2H])Oc2ccc(O[C@H]3CCN(c4nn5c(=O)ccnc5cc4C)[C@H](C)C3)cc2OC1([2H])[2H] [Compound 129, 7-((2R,4S)-4-((2,3-Dihydrobenzo[b][1,4]dioxin-6-yl-2,2,3,3-d4)oxy)-2-methylpiperidin-1-yl)-8-methyl-4H-pyrimido[1,2-b]pyridazin-4-one]
  Emax at 30 µM: 120%
  EC50: 81 nM

## [2H]C1([2H])Oc2ccc(OC3CCN(c4nn5c(=O)ccnc5c(C)c4COC)CC3)cc2OC1([2H])[2H] [Compound 18, 7-(4-((2,3-Dihydrobenzo[b][1,4]dioxin-6-yl-2,2,3,3-d4)oxy)piperidin-1-yl)-8-(methoxymethyl)-9-methyl-4H-pyrimido[1,2-b]pyridazin-4-one]
  Emax at 30 µM: 90%
  EC50: 162 nM

## [2H]C1([2H])Oc2cc(OC3CCN(c4nn5c(=O)ccnc5cc4C)CC3)cc(C)c2OC1([2H])[2H] [Compound 28, 8-methyl-7-(4-((8-methyl-2,3-dihydrobenzo[b][1,4]dioxin-6-yl-2,2,3,3-d4)oxy)piperidin-1-yl)-4H-pyrimido[1,2-b]pyridazin-4-one]
  Emax at 30 µM: 93%
  EC50: 288 nM

## [2H]C1(Oc2ccc3c(c2)OCCO3)CCN(c2nn3c(=O)cc(C(F)(F)F)nc3cc2C)CC1 [Compound 49, 7-(4-((2,3-dihydrobenzo[b][1,4]dioxin-6-yl)oxy)piperidin-1-yl-4-d)-8-methyl-2-(trifluoromethyl)-4H-pyrimido[1,2-b]pyridazin-4-one]
  Emax at 30 µM: 93%
  EC50: 10 nM

## Cc1cc2ncc(Cl)c(=O)n2nc1N1CCC(Oc2ccc3c(c2)OCCO3)CC1 [Compound 31, 3-chloro-7-(4-((2,3-dihydrobenzo[b][1,4]dioxin-6-yl)oxy)piperidin-1-yl)-8-methyl-4H-pyrimido[1,2-b]pyridazin-4-one]
  Emax at 30 µM: 82%
  EC50: 32 nM

## Cc1cc2nccc(=O)n2nc1N1CC[C@@H](Oc2ccc3c(c2)OCCO3)[C@H](F)C1 [Compound 32, 7-((3R,4R)-4-((2,3-dihydrobenzo[b][1,4]dioxin-6-yl)oxy)-3-fluoropiperidin-1-yl)-8-methyl-4H-pyrimido[1,2-b]pyridazin-4-one]
  Emax at 30 µM: 81%
  EC50: 147 nM

## Cc1ccc(OC2CCN(c3nn4c(=O)cc(C(F)F)nc4c(C)c3C)CC2)cn1 [Compound 78, 2-(difluoromethyl)-8,9-dimethyl-7-(4-((6-methylpyridin-3-yl)oxy)piperidin-1-yl)-4H-pyrimido[1,2-b]pyridazin-4-one]
  Emax at 30 µM: 95%
  EC50: 76 nM

## Cc1cc2nccc(=O)n2nc1N1CCC(Oc2ccc(F)cc2)CC1 [Compound 25, 7-(4-(4-fluorophenoxy)piperidin-1-yl)-8-methyl-4H-pyrimido[1,2-b]pyridazin-4-one]
  Emax at 30 µM: 90%
  EC50: 296 nM
